pKi: −log10 of the molar value. Counter-ions that a name gives are not always drawn.
molecular target: human GlyT1c transporter (Homo sapiens (Human), UniProt P48067); experiment: Radioligand binding assay using recombinant CHO cell membranes expressing human GlyT1; settings: human GlyT1c-expressing CHO cell membranes; read-out: radioligand binding Kiapp
Description: 2. Radioligand binding assays using recombinant CHO cell membranes expressing human GlyT1: […]

Chain of human GlyT1c transporter (P48067 whole entry): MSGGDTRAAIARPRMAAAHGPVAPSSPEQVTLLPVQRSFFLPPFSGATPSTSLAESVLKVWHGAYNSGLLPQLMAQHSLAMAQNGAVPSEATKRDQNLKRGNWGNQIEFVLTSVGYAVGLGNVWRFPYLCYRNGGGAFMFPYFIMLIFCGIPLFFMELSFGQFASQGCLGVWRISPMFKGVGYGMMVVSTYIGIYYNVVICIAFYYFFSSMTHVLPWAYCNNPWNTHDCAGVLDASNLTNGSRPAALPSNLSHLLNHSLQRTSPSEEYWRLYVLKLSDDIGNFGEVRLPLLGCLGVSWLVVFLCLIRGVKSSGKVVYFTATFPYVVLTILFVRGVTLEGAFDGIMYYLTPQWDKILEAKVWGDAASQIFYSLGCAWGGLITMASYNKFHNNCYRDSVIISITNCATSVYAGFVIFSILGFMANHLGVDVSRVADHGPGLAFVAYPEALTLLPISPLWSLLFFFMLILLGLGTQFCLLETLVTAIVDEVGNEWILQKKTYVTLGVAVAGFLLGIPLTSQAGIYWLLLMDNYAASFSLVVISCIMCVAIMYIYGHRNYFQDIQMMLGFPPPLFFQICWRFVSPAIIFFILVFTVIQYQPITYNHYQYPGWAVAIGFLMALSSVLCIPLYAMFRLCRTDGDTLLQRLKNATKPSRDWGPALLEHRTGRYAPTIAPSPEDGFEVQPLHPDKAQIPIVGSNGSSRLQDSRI

Row | pKi | Structure (SMILES)
1 | ≥ 7.00 | Cn1cnc(S(=O)(=O)NCc2ccc3c(c2)C(Cc2ccc(F)cc2)C(N)CC3)c1 (centres unmarked) [Example 176, N-{[7-Amino-8-(4-fluorobenzyl)-5,6,7,8-tetrahydronaphthalen-2-yl]methyl}-1-methyl-1H-imidazole-4-sulfonamide hydrochloride]
2 | ≥ 8.00 | Cn1cc(S(=O)(=O)NCc2ccc3c(c2)C(Cc2ccccc2)C(N2CCC2)CC3)cn1 (centres unmarked) [Example 250, N-{[7-(Azetidin-1-yl)-8-benzyl-5,6,7,8-tetrahydronaphthalen-2-yl]methyl}-1-methyl-1H-pyrazole-4-sulfonamide]
3 | ≥ 8.00 | CN(CCOc1ccc2c(c1)C(Cc1ccc(Cl)c(Cl)c1)C(N1CCCC1)CC2)S(=O)(=O)CC1CC1 (centres unmarked) [Example 126, C-Cyclopropyl-N-{2-[8-(3,4-dichloro-benzyl)-7-pyrrolidin-1-yl-5,6,7,8-tetrahydronaphthalen-2-yloxy]-ethyl}-N-methyl-methanesulfonamide hydrochloride]
4 | ≥ 7.00 | CCCS(=O)(=O)NCCCc1ccc2c(c1)C(Cc1cccc(F)c1)C(NCC)CC2 (centres unmarked) [Example 219, Propane-1-sulfonic acid {3-[7-ethylamino-8-(3-fluoro-benzyl)-5,6,7,8-tetrahydronaphthalen-2-yl]-propyl}-amide hydrochloride]
5 | ≥ 6.00 | CCCS(=O)(=O)NCCCc1ccc2c(c1)C(Cc1ccccc1)C(NC(C)C)CC2 (centres unmarked) [Example 273, N-{3-[8-Benzyl-7-(propan-2-ylamino)-5,6,7,8-tetrahydronaphthalen-2-yl]propyl}propane-1-sulfonamide hydrochloride]
6 | ≥ 6.00 | Cn1ccc(S(=O)(=O)NCc2ccc3c(c2)C(Cc2ccccc2)C(N)CC3)n1 (centres unmarked) [Example 183, N-{[7-Amino-8-benzyl-5,6,7,8-tetrahydronaphthalen-2-yl]methyl}-1-methyl-1H-pyrazole-3-sulfonamide hydrochloride]
7 | ≥ 7.00 | Cn1cnc(S(=O)(=O)NCc2ccc3c(c2)C(Cc2ccccc2)C(N2CCCC2)CC3)c1 (centres unmarked) [Example 262, N-{[8-Benzyl-7-(pyrrolidin-1-yl)-5,6,7,8-tetrahydronaphthalen-2-yl]methyl}-1-methyl-1H-imidazole-4-sulfonamide]
8 | ≥ 6.00 | CCCCCS(=O)(=O)NCCOc1ccc2c(c1)C(Cc1ccc(Cl)c(Cl)c1)C(N)CC2 (centres unmarked) [Example 114, N-(2-(7-Amino-8-(3,4-dichlorobenzyl)-5,6,7,8-tetrahydronaphthalen-2-yloxy)ethyl)pentane-1-sulfonamide hydrochloride]
9 | ≥ 7.00 | O=S(=O)(CC1CC1)NCCOc1ccc2c(c1)C(Cc1cccc(Cl)c1)C(N1CCC1)CC2 (centres unmarked) [Example 320, N-{2-[7-Azetidin-1-yl-8-(3-chloro-benzyl)-5,6,7,8-tetrahydro-naphthalen-2-yloxy]-ethyl}-C-cyclopropyl-methanesulfonamide]
10 | ≥ 7.00 | CC(=O)NC1CCc2ccc(OCCNS(=O)(=O)CC3CC3)cc2C1Cc1cccc(Cl)c1 (centres unmarked) [Example 306, N-[1-(3-Chloro-benzyl)-7-(2-cyclopropylmethanesulfonylamino-ethoxy)-1,2,3,4-tetrahydronaphthalen-2-yl]-acetamide]
11 | ≥ 5.00 | CC(=O)NC1CCc2ccc(CCCNS(=O)(=O)CC3CC3)cc2C1Cc1cccc(F)c1 (centres unmarked) [Example 218, N-[7-(3-{[(Cyclopropylmethyl)sulfonyl]amino}propyl)-1-(3-fluorobenzyl)-1,2,3,4-tetrahydronaphthalen-2-yl]acetamide]
12 | ≥ 7.00 | CCNC1CCc2ccc(CNS(=O)(=O)c3cnn(C)c3)cc2C1Cc1cccc(F)c1 (centres unmarked) [Example 200, 1-Methyl-1H-pyrazole-4-sulfonic acid [7-ethylamino-8-(3-fluoro-benzyl)-5,6,7,8-tetrahydronaphthalen-2-ylmethyl]-amide hydrochloride]
13 | ≥ 7.00 | Cn1cnc(S(=O)(=O)NCc2ccc3c(c2)C(Cc2ccccc2)C(N2CCOCC2)CC3)c1 (centres unmarked) [Example 257, N-{[8-Benzyl-7-(morpholin-4-yl)-5,6,7,8-tetrahydronaphthalen-2-yl]methyl}-1-methyl-1H-imidazole-4-sulfonamide]
14 | ≥ 7.00 | CCCS(=O)(=O)N(C)CCCc1ccc2c(c1)C(Cc1cccc(F)c1)C(N)CC2 (centres unmarked) [Example 227, N-{3-[7-Amino-8-(3-fluorobenzyl)-5,6,7,8-tetrahydronaphthalen-2-yl]propyl}-N-methylpropane-1-sulfonamide hydrochloride]
15 | ≥ 7.00 | CCCS(=O)(=O)N(CCOc1ccc2c(c1)C(Cc1ccccc1)C(N)CC2)C1CC1 (centres unmarked) [Example 282, Propane-1-sulfonic acid [2-(7-amino-8-benzyl-5,6,7,8-tetrahydro-naphthalen-2-yloxy)ethyl]-cyclopropyl-amide hydrochloride]
16 | ≥ 8.00 | CNC1CCc2ccc(OCCNS(=O)(=O)CC3CC3)cc2C1Cc1ccccc1 (centres unmarked) [Example 137, N-(2-{[8-Benzyl-7-(methylamino)-5,6,7,8-tetrahydronaphthalen-2-yl]oxy}ethyl)-1-cyclopropylmethanesulfonamide hydrochloride]

Row | pKi | Structure (SMILES)
17 | ≥ 7.00 | NC1CCc2ccc(OCCNS(=O)(=O)CC3CC3)cc2C1Cc1ccc(F)c(F)c1 (centres unmarked) [Example 131, N-(2-{[7-Amino-8-(3,4-difluorobenzyl)-5,6,7,8-tetrahydronaphthalen-2-yl]oxy}ethyl)-1-cyclopropylmethanesulfonamide hydrochloride]
18 | ≥ 7.00 | CCNC1CCc2ccc(CCCNS(=O)(=O)CC3CC3)cc2C1Cc1ccc(F)c(F)c1 (centres unmarked) [Example 226, 1-Cyclopropyl-N-{3-[8-(3,4-difluorobenzyl)-7-(ethylamino)-5,6,7,8-tetrahydronaphthalen-2-yl]propyl}methanesulfonamide trifluoroacetate]
19 | ≥ 8.00 | Cn1cc(S(=O)(=O)NCCOc2ccc3c(c2)C(Cc2cccc(Cl)c2)C(N2CCC2)CC3)cn1 (centres unmarked) [Example 322, 1-Methyl-1H-pyrazole-4-sulfonic acid {2-[7-azetidin-1-yl-8-(3-chloro-benzyl)-5,6,7,8-tetrahydro-naphthalen-2-yloxy]-ethyl}-amide hydrochloride]
20 | ≥ 7.00 | CCCS(=O)(=O)NCCCc1ccc2c(c1)C(Cc1ccc(F)cc1)C(N)CC2 (centres unmarked) [Example 213, N-{3-[7-Amino-8-(4-fluorobenzyl)-5,6,7,8-tetrahydronaphthalen-2-yl]propyl}propane-1-sulfonamide hydrochloride]
21 | ≥ 6.00 | CCOC(=O)NC1CCc2ccc(OCCNS(=O)(=O)c3ccn(C)c3)cc2C1Cc1cc(F)cc(F)c1 (centres unmarked) [Example 236, Ethyl[1-(3,5-difluorobenzyl)-7-(2-{[(1-methyl-1H-pyrrol-3-yl)sulfonyl]amino}ethoxy)-1,2,3,4-tetrahydronaphthalen-2-yl]carbamate]
22 | ≥ 8.00 | NC1CCc2ccc(OCCNS(=O)(=O)CC3CC3)cc2C1Cc1ccc(Cl)c(Cl)c1 (centres unmarked) [Example 95, N-{2-[7-Amino-8-(3,4-dichloro-benzyl)-5,6,7,8-tetrahydro-naphthalen-2-yloxy]-ethyl}-C-cyclopropyl-methanesulfonamide hydrochloride]
23 | ≥ 5.00 | CCCS(=O)(=O)N(CCOc1ccc2c(c1)C(Cc1ccccc1)C(NC(=O)OCC)CC2)C1CC1 (centres unmarked) [Example 280]
24 | ≥ 8.00 | CCCS(=O)(=O)NCCCc1ccc2c(c1)C(Cc1cccc(Cl)c1)C(NC)CC2 (centres unmarked) [Example 308, Propane-1-sulfonic acid {3-[8-(3-chloro-benzyl)-7-methylamino-5,6,7,8-tetrahydronaphthalen-2-yl]-propyl}-amide hydrochloride]
25 | ≥ 8.00 | Cn1ccc(S(=O)(=O)NCc2ccc3c(c2)C(Cc2ccccc2)C(N)CC3)c1 (centres unmarked) [Example 180, N-{[7-Amino-8-benzyl-5,6,7,8-tetrahydronaphthalen-2-yl]methyl}-1-methyl-1H-pyrrole-3-sulfonamide hydrochloride]
26 | ≥ 8.00 | CNC1CCc2ccc(OCCNS(=O)(=O)CC3CC3)cc2C1Cc1cccc(F)c1 (single isomer, unassigned; enantiomer 1) [Example 240, Enantiomer 1 of 1-cyclopropyl-N-(2-{[8-(3-fluorobenzyl)-7-(methylamino)-5,6,7,8-tetrahydronaphthalen-2-yl]oxy}ethyl)methanesulfonamide hydrochloride]
27 | ≥ 7.00 | O=S(=O)(CC1CC1)NCCOc1ccc2c(c1)C(Cc1ccc(Cl)c(Cl)c1)C(N1CCCC1)CC2 (centres unmarked) [Example 132, C-Cyclopropyl-N-{2-[8-(3,4-dichloro-benzyl)-7-pyrrolidin-1-yl-5,6,7,8-tetrahydronaphthalen-2-yloxy]-ethyl}-methanesulfonamide hydrochloride]
28 | ≥ 5.00 | CCCS(=O)(=O)NCCCc1ccc2c(c1)C(Cc1ccc(F)cc1)C(NC(C)=O)CC2 (centres unmarked) [Example 215, N-[1-(4-Fluorobenzyl)-7-{3-[(propylsulfonyl)amino]propyl}-1,2,3,4-tetrahydronaphthalen-2-yl]acetamide]
29 | ≥ 8.00 | Cn1cc(S(=O)(=O)NCCOc2ccc3c(c2)C(Cc2ccccc2Cl)C(N)CC3)cn1 (centres unmarked) [Example 301, 1-Methyl-1H-pyrazole-4-sulfonic acid {2-[7-amino-8-(2-chloro-benzyl)-5,6,7,8-tetrahydronaphthalen-2-yloxy]-ethyl}-amide hydrochloride]
30 | ≥ 6.00 | CNC1CCc2ccc(OCCNS(=O)(=O)CC3CC3)cc2C1Cc1cc(F)cc(F)c1 (single isomer, unassigned; enantiomer 1) [Example 245, Enantiomer 1 of 1-cyclopropyl-N-(2-{[8-(3,5-difluorobenzyl)-7-(methylamino)-5,6,7,8-tetrahydronaphthalen-2-yl]oxy}ethyl)methanesulfonamide hydrochloride]
31 | ≥ 6.00 | N#Cc1cccc(CC2c3cc(OCCNS(=O)(=O)CC4CC4)ccc3CCC2N2CCCC2)c1 (centres unmarked) [Example 155, N-(2-{[8-(3-Cyanobenzyl)-7-(pyrrolidin-1-yl)-5,6,7,8-tetrahydronaphthalen-2-yl]oxy}ethyl)-1-cyclopropylmethanesulfonamide hydrochloride]

Row | Structure (SMILES) | pKi
32 | C[Si](C)(C)CCS(=O)(=O)NCCOc1ccc2c(c1)C(Cc1ccc(Cl)c(Cl)c1)C(N)CC2 (centres unmarked) [Example 86, 2-Trimethylsilanyl-ethanesulfonic acid {2-[7-amino-8-(3,4-dichloro-benzyl)-5,6,7,8-tetrahydro-naphthalen-2-yloxy]-ethyl}-amide hydrochloride] | ≥ 5.00

From US9067871B2, “Aminotetraline derivatives, pharmaceutical compositions containing them, and their use in therapy” (ABBVIE DEUTSCHLAND GMBH & CO KG, priority 2009, dated 2015)
